{"source": "patent US4731109A", "about": "“Herbicidal 2-haloacetanilides” (Monsanto Company, priority 1982, dated 1988)", "key": {"cotton": {"tested_on": "cotton", "experiment": "Field tests, selectivity", "type": "in vivo", "text": "(§1) In the discussion and tables of data below, reference is made to herbicide application rates symbolized as \"GR15 \" and \"GR85 \"; these rates are given in kilograms per hectare (kg/ha) which are convertible into pounds per acre (lbs/A) by dividing the kg/ha rate by 1.12.\n(§2) A further guide to the effectiveness of a chemical as a selective herbicide is the \"selectivity factor\" (\"SF\") for a herbicide in given crops and weeds. The selectivity factor is a measure of the relative degree of crop safety and weed injury and is expressed in terms of the GR15 /GR85 ratio, i.e., the GR15 rate for the crop divided by the GR85 rate for the weed, both rates in kg/ha (lb/A). In the tables below, selectivity factors are shown in parenthesis following the GR85 rate for each weed; the symbol \"NS\" indicates \"non-selective\". Marginal or undetermined selectivity is indicated by a dash (--).\n(§3) It will be understood by those skilled in the art that not all of the named weeds are selectively controlled in all of the named crops under all conditions of climate, soil, moisture and/or herbicide application modes. Selectivity data for control of the foregoing weeds in the crops soybeans, corn, cotton and peanuts from a plurality of field tests in various locations under various conditions of soil, moisture, etc., is shown collectively in Tables VIII-XI, respectively."}, "soybeans": {"tested_on": "soybeans", "experiment": "Field tests, selectivity", "type": "in vivo", "text": "as §1, §2, §3"}}}
{"smiles": "CCOCN(C(=O)CCl)c1c(C)cccc1C(F)(F)F", "note": "[Example 1, N-(ethoxymethyl)-2'-trifluoromethyl-6'-methyl-2-chloroacetanilide]", "values": [{"measurement": "GR15", "setting": "cotton; Cotton/Crabgrass, P.P.I., 7 WAT", "result": 0.84, "unit": "kg/ha"}, {"measurement": "GR15", "setting": "cotton; Cotton/Crabgrass, S.A., 7 WAT", "result": 1.4, "unit": "kg/ha"}, {"measurement": "GR15", "setting": "cotton; Cotton/Goosegrass, P.P.I., 7 WAT", "result": 0.84, "unit": "kg/ha"}, {"measurement": "GR15", "setting": "cotton; Cotton/Prickly sida, P.P.I., 6 WAT", "result": 3.4, "unit": "kg/ha"}, {"measurement": "GR15", "setting": "cotton; Cotton/Prickly sida, S.A., 6 WAT", "result": 3.6, "unit": "kg/ha"}, {"measurement": "GR15", "setting": "cotton; Cotton/Prickly sida, S.A., 9 WAT", "result": 3.4, "unit": "kg/ha"}, {"measurement": "GR15", "setting": "cotton; Cotton/Purple nutsedge, P.P.I., 6 WAT", "result": 3.4, "unit": "kg/ha"}, {"measurement": "GR15", "setting": "cotton; Cotton/Purple nutsedge, S.A., 6 WAT", "result": 3.6, "unit": "kg/ha"}, {"measurement": "GR15", "setting": "cotton; Cotton/Purple nutsedge, S.A., 9 WAT", "result": 3.4, "unit": "kg/ha"}, {"measurement": "GR15", "setting": "cotton; Cotton/Purslane, S.A., 9 WAT", "result": 3.4, "unit": "kg/ha"}, {"measurement": "GR15", "setting": "soybeans; Soybeans/Giant foxtail, P.P.I., 3 WAT", "result": "> 4.5", "unit": "kg/ha"}, {"measurement": "GR15", "setting": "soybeans; Soybeans/Giant foxtail, P.P.I., 5 WAT", "result": "> 4.5", "unit": "kg/ha"}, {"measurement": "GR15", "setting": "soybeans; Soybeans/Giant foxtail, S.A., 3 WAT", "result": "> 4.5", "unit": "kg/ha"}, {"measurement": "GR15", "setting": "soybeans; Soybeans/Lambsquarters, P.P.I., 6 WAT", "result": 1.4, "unit": "kg/ha"}, {"measurement": "GR15", "setting": "soybeans; Soybeans/Lambsquarters, S.A., 6 WAT", "result": 2.5, "unit": "kg/ha"}, {"measurement": "GR15", "setting": "soybeans; Soybeans/Pennsylvania Smartweed, P.P.I., 8 WAT", "result": 4.5, "unit": "kg/ha"}, {"measurement": "GR15", "setting": "soybeans; Soybeans/Yellow foxtail, P.P.I., 6 WAT", "result": 1.4, "unit": "kg/ha"}, {"measurement": "GR15", "setting": "soybeans; Soybeans/Yellow foxtail, S.A., 6 WAT", "result": 2.5, "unit": "kg/ha"}]}
